{"source": "patent US20240400606A1", "about": "“SMALL MOLECULE ACTIVATORS OF THE IMMUNE SYSTEM” (THE BOARD OF TRUSTEES OF THE UNIVERSITY OF ILLINOIS, priority 2021, published 2024)", "conditions": "in vivo, ip", "experimental": "Tolerability Studies. Three female C57/BL6 mice were administered single IP doses (formulated in 50% DMSO/50% Peg400) of compound (2). Compound was formulated at a concentration of 20-40 mg/mL depending on dose. Mice were injected with 100 μL formulated compound. Mouse weight and lethality were tracked as indicators of compound tolerability. Tolerability of vehicle had been previously assessed.\nMaximum tolerated dose mouse studies: Compound (3) was formulated in 50% DMSO, 50% Peg400 at 20 mg/mL (for 100 mg/kg injection), 25 mg/mL (for 125 mg/kg injection), or 40 mg/mL (for 200 mg/kg injection). Compound was injected intraperitoneally into female C57BL/6 mice, and the mice were monitored for signs of toxicity."}
{"smiles": "C[C@]12CCC(=O)N(Cc3ccc(Br)cc3)C1=CC[C@@H]1[C@@H]2C(=O)C[C@]2(C)C(=O)CC[C@@H]12", "note": "[Compound 3, (4aR,4bS,6aS,9aS,9bS)-1-(4-bromobenzyl)-4a,6a-dimethyl-3,4,4a,6,6a,8,9,9a,9b,10-decahydro-1H-indeno[5,4-f]quinoline-2,5,7(4bH)-trione]", "values": [{"measurement": "tolerated dose", "setting": "female, C57BL/6, mouse", "value": "up to 200 mg/kg"}, {"measurement": "tolerability", "setting": "mouse, 200 mg/kg", "value": "not tolerated"}]}
